Target: T1, SIRT1 (Homo sapiens, UniProt Q96EB6)
T1 sequence (Q96EB6 1-747): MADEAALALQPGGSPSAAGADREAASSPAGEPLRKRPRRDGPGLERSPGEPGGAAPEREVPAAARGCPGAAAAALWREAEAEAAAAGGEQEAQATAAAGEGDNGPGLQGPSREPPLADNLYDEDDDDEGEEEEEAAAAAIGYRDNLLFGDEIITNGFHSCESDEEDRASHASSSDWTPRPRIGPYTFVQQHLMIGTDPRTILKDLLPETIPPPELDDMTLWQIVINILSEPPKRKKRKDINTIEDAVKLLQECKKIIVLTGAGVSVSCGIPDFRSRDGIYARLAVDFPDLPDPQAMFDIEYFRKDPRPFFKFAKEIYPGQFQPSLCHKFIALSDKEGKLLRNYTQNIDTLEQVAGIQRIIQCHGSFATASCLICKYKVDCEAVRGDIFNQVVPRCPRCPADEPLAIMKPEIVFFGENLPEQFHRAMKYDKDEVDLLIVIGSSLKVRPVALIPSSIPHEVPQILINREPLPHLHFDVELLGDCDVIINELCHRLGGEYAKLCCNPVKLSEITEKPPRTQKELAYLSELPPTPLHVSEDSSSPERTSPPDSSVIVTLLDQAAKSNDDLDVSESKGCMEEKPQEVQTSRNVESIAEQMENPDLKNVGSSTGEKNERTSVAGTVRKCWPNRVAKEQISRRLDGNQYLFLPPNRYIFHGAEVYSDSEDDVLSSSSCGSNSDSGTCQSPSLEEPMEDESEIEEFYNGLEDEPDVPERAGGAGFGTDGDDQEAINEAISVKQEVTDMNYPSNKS
Experiment: Mass spectrometry based assay to identify modulators of SIRT1 activity (deacetylation of p53-based acetylated peptide substrate)
Type: biochemical
Conditions: SIRT1 activation; for Emax: 25 min, read-out: % FOLD ACT. (percent maximum fold activation)
Text: A mass spectrometry based assay was used to identify modulators of SIRT1 activity. The mass spectrometry based assay utilizes a peptide having 20 amino acid residues as follows: Ac-EE-K(biotin)-GQSTSSHSK(Ac)NleSTEG-K(5TMR)-EE-NH2 (SEQ ID NO: 1) wherein K(Ac) is an acetylated lysine residue and Nle is a norleucine. The peptide is labeled with the fluorophore 5TMR (excitation 540 nm/emission 580 nm) at the C-terminus. The sequence of the peptide substrate is based on p53 with several modifications. In addition, the methionine residue naturally present in the sequence was replaced with the norleucine because the methionine may be susceptible to oxidation during synthesis and purification.
The mass spectrometry assay is conducted as follows: […] peptide substrate and 120 μM βNAD^+ is incubated with 10 nM SIRT1 for 25 minutes at 25° C. in a reaction buffer (50 mM Tris-acetate pH 8, 137 mM NaCl, 2.7 mM KCl, 1 mM MgCl2, 5 mM DTT, 0.05% BSA). Test compounds may be added to the reaction as described above. The SirT1 gene is cloned into a T7-promoter containing vector and transformed into BL21(DE3). After the 25 minute incubation with SIRT1, 10 μL of 10% formic acid is added to stop the reaction. Reactions are sealed and frozen for later mass spec analysis. Determination of the mass of the substrate peptide allows for precise determination of the degree of acetylation (i.e. starting material) as compared to deacetylated peptide (product).
A control for inhibition of sirtuin activity is conducted by adding 1 μL of 500 mM nicotinamide as a negative control at the start of the reaction (e.g., permits determination of maximum sirtuin inhibition). A control for activation of sirtuin activity is conducted using 10 nM of sirtuin protein, with 1 μL of DMSO in place of compound, to determine the amount of deacetylation of the substrate at a given timepoint within the linear range of the assay. This timepoint is the same as that used for test compounds and, within the linear range, the endpoint represents a change in velocity.
For the above assay, SIRT1 protein was expressed and purified as follows. The SirT1 gene was cloned into a T7-promoter containing vector and transformed into BL21(DE3). The protein was expressed by induction with 1 mM IPTG as an N-terminal His-tag fusion protein at 18° C. overnight and harvested at 30,000×g. Cells were lysed with lysozyme in lysis buffer (50 mM Tris-HCl, 2 mM Tris[2-carboxyethyl]phosphine (TCEP), 10 μM ZnCl2, 200 mM NaCl) and further treated with sonication for 10 min for complete lysis. The protein was purified over a Ni-NTA column (Amersham) and fractions containing pure protein were pooled, concentrated and run over a sizing column (Sephadex S200 26/60 global). The peak containing soluble protein was collected and run on an Ion-exchange column (MonoQ). Gradient elution (200 mM-500 mM NaCl) yielded pure protein. This protein was concentrated and dialyzed against dialysis buffer (20 mM Tris-HCl, 2 mM TCEP) overnight. The protein was aliquoted and frozen at −80° C. until further use.

CN1C(=O)CN(C(=O)Nc2cncnc2)c2nc(-c3cccc(C(F)(F)F)c3)ccc21 [Compound 527]
Emax: ≤ 200%
EC1.5: B (EC1.5 1-25 μM)

CN1C(=O)CN(C(=O)Nc2cccnn2)c2nc(-c3cccc(C(F)(F)F)c3)ccc21 [Compound 528]
Emax: ≤ 200%
EC1.5: C (EC1.5>25 μM)

CN1CCN(C(=O)Nc2nccs2)c2nc(-c3cccc(C(F)(F)F)c3)ccc21 [Compound 529, 1-methyl-N-(thiazol-2-yl)-6-(3-(trifluoromethyl)phenyl)-2,3-dihydropyrido[2,3-b]pyrazine-4(1H)-carboxamide]
Emax: > 200%

Cc1cnc(NC(=O)N2CCN(C)c3ccc(-c4cccc(C(F)(F)F)c4)nc32)s1 [Compound 530]
Emax: ≤ 200%
EC1.5: B (EC1.5 1-25 μM)

CN1CCN(C(=O)Nc2cncnc2)c2nc(-c3cccc(C(F)(F)F)c3)ccc21 [Compound 536]
Emax: > 200%
EC1.5: A (EC1.5<1.0 μM)

CN1CCN(C(=O)NC2CCOC2=O)c2nc(-c3cccc(C(F)(F)F)c3)ccc21 (stereo not drawn) [Compound 540]
Emax: ≤ 200%
EC1.5: C (EC1.5>25 μM)

O=C(Nc1ccncc1)N1CCOc2ccc(-c3cccc(Cl)c3)nc21 [Compound 541, 6-(3-chlorophenyl)-N-(pyridin-4-yl)-2H-pyrido[3,2-b][1,4]oxazine-4(3H)-carboxamide]
Emax: > 200%
EC1.5: A (EC1.5<1.0 μM)

O=C(Nc1ccncc1)N1CCOc2ccc(-c3cccc(F)c3)nc21 [Compound 542]
Emax: > 200%
EC1.5: B (EC1.5 1-25 μM)

O=C(Nc1ccncc1)N1CCOc2ccc(-c3ccccc3F)nc21 [Compound 544]
Emax: > 200%
EC1.5: B (EC1.5 1-25 μM)

O=C(Nc1ccncc1)N1CCOc2ccc(-c3ccccc3C(F)(F)F)nc21 [Compound 546]
Emax: > 200%
EC1.5: B (EC1.5 1-25 μM)

O=C(Nc1cncc(F)c1)N1CCOc2ccc(-c3cccc(C(F)(F)F)c3)nc21 [Compound 547]
Emax: > 200%
EC1.5: A (EC1.5<1.0 μM)

O=C(Nc1ccncc1)N1CCCOc2ccc(-c3cccc(F)c3)nc21 [Compound 550]
Emax: > 200%
EC1.5: B (EC1.5 1-25 μM)

Cc1ccc(NC(=O)N2CCOc3ccc(-c4cccc(C(F)(F)F)c4)nc32)c(C)n1 [Compound 552]
Emax: > 200%
EC1.5: B (EC1.5 1-25 μM)

Cc1cc(C)c(NC(=O)N2CCOc3ccc(-c4cccc(C(F)(F)F)c4)nc32)cn1 [Compound 553]
Emax: ≤ 200%
EC1.5: B (EC1.5 1-25 μM)

Cc1ccc(NC(=O)N2CCOc3ccc(-c4cccc(C(F)(F)F)c4)nc32)cn1 [Compound 554]
Emax: > 200%
EC1.5: A (EC1.5<1.0 μM)

Cc1ncccc1NC(=O)N1CCOc2ccc(-c3cccc(C(F)(F)F)c3)nc21 [Compound 555]
Emax: ≤ 200%
EC1.5: B (EC1.5 1-25 μM)

O=C(Nc1ccncc1)N1CCCOc2ccc(-c3cccc(C(F)(F)F)c3)nc21 [Compound 558, N-(pyridin-4-yl)-7-(3-(trifluoromethyl)phenyl)-3,4-dihydropyrido[3,2-b][1,4]oxazepine-5(2H)-carboxamide]
Emax: > 200%
EC1.5: B (EC1.5 1-25 μM)

CC1(C)CN(C(=O)Nc2ccncc2)c2nc(-c3cccc(F)c3)ccc2O1 [Compound 561]
Emax: > 200%
EC1.5: B (EC1.5 1-25 μM)

O=C(Oc1cccnc1)N1CCOc2ccc(-c3cccc(C(F)(F)F)c3)nc21 [Compound 562]
Emax: ≤ 200%
EC1.5: C (EC1.5>25 μM)

CN1C(=O)CN(C(=O)Nc2cccc(N3CCOCC3)n2)c2nc(-c3cccc(C(F)(F)F)c3)ccc21 [Compound 563]
Emax: > 200%
EC1.5: A (EC1.5<1.0 μM)

Cc1cnccc1NC(=O)N1CCOc2ccc(-c3cccc(C(F)(F)F)c3)nc21 [Compound 564]
Emax: ≤ 200%
EC1.5: B (EC1.5 1-25 μM)

O=C(Nc1cc(C(F)(F)F)ccn1)N1CCOc2ccc(-c3cccc(C(F)(F)F)c3)nc21 [Compound 565]
Emax: ≤ 200%
EC1.5: B (EC1.5 1-25 μM)

O=C(Nc1ncc(F)cc1F)N1CCOc2ccc(-c3cccc(C(F)(F)F)c3)nc21 [Compound 567]
Emax: > 200%
EC1.5: B (EC1.5 1-25 μM)

O=C(Nc1ncccc1F)N1CCOc2ccc(-c3cccc(C(F)(F)F)c3)nc21 [Compound 568]
Emax: > 200%
EC1.5: B (EC1.5 1-25 μM)

Cc1cccnc1NC(=O)N1CCOc2ccc(-c3cccc(C(F)(F)F)c3)nc21 [Compound 569]
Emax: ≤ 200%
EC1.5: C (EC1.5>25 μM)

Cc1cc(NC(=O)N2CCOc3ccc(-c4cnn(C)c4C)nc32)cc(C)n1 [Compound 572]
Emax: > 200%
EC1.5: B (EC1.5 1-25 μM)

Cc1cc(NC(=O)N2CCOc3ccc(-c4c(C)noc4C)nc32)cc(C)n1 [Compound 573]
Emax: > 200%
EC1.5: B (EC1.5 1-25 μM)

Cc1cc(NC(=O)N2CCOc3ccc(-c4ccnn4C)nc32)cc(C)n1 [Compound 575]
Emax: > 200%
EC1.5: B (EC1.5 1-25 μM)

Cc1cncc(NC(=O)N2CCCOc3ccc(-c4cccc(C(F)(F)F)c4)nc32)c1 [Compound 576]
Emax: > 200%
EC1.5: B (EC1.5 1-25 μM)

Cc1cc(NC(=O)N2CCCOc3ccc(-c4cccc(C(F)(F)F)c4)nc32)ccn1 [Compound 577]
Emax: > 200%
EC1.5: B (EC1.5 1-25 μM)

O=C(Nc1ccnc(N2CCC2)c1)N1CCCOc2ccc(-c3cccc(C(F)(F)F)c3)nc21 [Compound 579]
Emax: > 200%
EC1.5: A (EC1.5<1.0 μM)

O=C(Nc1ccncn1)N1CCCOc2ccc(-c3cccc(F)c3)nc21 [Compound 580]
Emax: > 200%
EC1.5: B (EC1.5 1-25 μM)

Cc1cncc(NC(=O)N2CCCOc3ccc(-c4cccc(F)c4)nc32)c1 [Compound 581]
Emax: > 200%
EC1.5: B (EC1.5 1-25 μM)

Cc1cc(NC(=O)N2CCCOc3ccc(-c4cccc(F)c4)nc32)ccn1 [Compound 582]
Emax: > 200%
EC1.5: B (EC1.5 1-25 μM)

Cc1csc(NC(=O)N2CCCOc3ccc(-c4cccc(F)c4)nc32)n1 [Compound 583]
Emax: > 200%
EC1.5: B (EC1.5 1-25 μM)

O=C(Nc1ccnc(N2CCC2)c1)N1CCCOc2ccc(-c3cccc(F)c3)nc21 [Compound 584]
Emax: > 200%
EC1.5: B (EC1.5 1-25 μM)

CC1(C)CN(C(=O)Nc2cncc(F)c2)c2nc(-c3cccc(Cl)c3)ccc2O1 [Compound 601]
Emax: > 200%
EC1.5: A (EC1.5<1.0 μM)

Cc1cncc(NC(=O)N2CCCOc3ccc(-c4cccc(N5CCCC5)c4)nc32)c1 [Compound 610]
Emax: > 200%
EC1.5: B (EC1.5 1-25 μM)

CC1(C)CN(C(=O)Nc2cncc(F)c2)c2nc(-c3cccc(F)c3)ccc2O1 [Compound 621]
Emax: > 200%
EC1.5: B (EC1.5 1-25 μM)

O=C(Nc1ccncn1)N1CCCOc2ccc(-c3cccc(Cl)c3)nc21 [Compound 625]
Emax: > 200%
EC1.5: A (EC1.5<1.0 μM)

O=C(Nc1ccncn1)N1CCCOc2ccc(-c3cccc(N4CCCC4)c3)nc21 [Compound 627]
Emax: > 200%
EC1.5: B (EC1.5 1-25 μM)

Reference: patent US9556201B2, “Bicyclic pyridines and analogs as sirtuin modulators” (GLAXOSMITHKLINE LLC, priority 2009, dated 2017)
